PubChem BioAssay (NCI)
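The compound was tested at five concentrations on cells cultured in 96-well plates, with a 48-hour exposure period. GI50 marks 50% less growth. TGI marks complete inhibition of growth.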

Legend:
Test in all cases: NCI tumour cell line growth inhibition, 48 h
[1] = system: SW-620 colon
[2] = system: OVCAR-8 ovarian
[3] = system: IGROV1 ovarian
[4] = system: MDA-MB-435
[5] = system: NCI-H23 lung
[6] = system: HOP-92 NSCLC
[7] = system: HCT-15 colon
[8] = system: OVCAR-5 ovarian
[9] = system: HS 578T breast
[10] = system: A498 renal
[11] = system: UO-31 renal
[12] = system: DU-145 prostate
[13] = system: SR leukemia
[14] = system: SN12C renal
[15] = system: EKVX NSCLC
[16] = system: BT-549 breast
[17] = system: RPMI-8226 leukemia
[18] = system: HOP-62 NSCLC
[19] = system: CCRF-CEM leukemia
[20] = system: A549 NSCLC
[21] = system: SNB-19 CNS
[22] = system: T-47D breast
[23] = system: MDA-MB-231 breast
[24] = system: SK-MEL-5 melanoma
[25] = system: COLO 205 colon
[26] = system: KM12 colon
[27] = system: SK-OV-3 ovarian
[28] = system: RXF 393 renal
[29] = system: K-562 leukemia
[30] = system: MOLT-4 leukemia
[31] = system: SK-MEL-2 melanoma
[32] = system: TK-10 renal
[33] = system: MCF7 breast
[34] = system: SF-295 CNS
[35] = system: OVCAR-3 ovarian
[36] = system: CAKI-1 renal
[37] = system: PC-3 prostate
[38] = system: SK-MEL-28 melanoma
[39] = system: SNB-75 CNS
[40] = system: SF-268 CNS
[41] = system: NCI-H460 lung
[42] = system: UACC-257 melanoma
[43] = system: HT29 colon
[44] = system: NCI/ADR-RES ovarian
[45] = system: MALME-3M melanoma
[46] = system: SF-539 CNS
[47] = system: M14 melanoma
[48] = system: NCI-H522 lung
[49] = system: UACC-62 melanoma
[50] = system: 786-0 renal
[51] = system: NCI-H226 lung
[52] = system: U251 CNS
[53] = system: HCT-116 colon
[54] = system: HCC-2998 colon
[55] = system: ACHN renal
[56] = system: LOX IMVI melanoma
[57] = system: OVCAR-4 ovarian

## COc1cccc(/C(COc2ccc3c(c2)oc(=O)c2ccccc23)=N\O)c1
[1]
  GI50: 42.5 µM
  TGI: > 100 µM
[2]
  GI50: 20.8 µM
  TGI: 54 µM
[3]
  GI50: 28.4 µM
  TGI: 58.5 µM
[4]
  GI50: 19.9 µM
  TGI: 52.8 µM
[5]
  GI50: 33.6 µM
  TGI: > 100 µM
[6]
  GI50: 71.8 µM
  TGI: > 100 µM
[7]
  GI50: 37.2 µM
  TGI: > 100 µM
[8]
  GI50: > 100 µM
  TGI: > 100 µM
[9]
  GI50: 67.1 µM
  TGI: > 100 µM
[10]
  GI50: 30.5 µM
  TGI: 81.8 µM
[11]
  GI50: 17.3 µM
  TGI: 34.3 µM
[12]
  GI50: 16.9 µM
  TGI: 60.7 µM
[13]
  GI50: 10.3 µM
  TGI: > 100 µM
[14]
  GI50: 32.8 µM
  TGI: 96 µM
[15]
  GI50: 12.5 µM
  TGI: 66.2 µM
[16]
  GI50: 23 µM
  TGI: 57.9 µM
[17]
  GI50: 30.3 µM
  TGI: > 100 µM
[18]
  GI50: 37 µM
  TGI: > 100 µM
[19]
  GI50: 23.2 µM
  TGI: > 100 µM
[20]
  GI50: 16.9 µM
  TGI: 51.1 µM
[21]
  GI50: 52 µM
  TGI: > 100 µM
[22]
  GI50: 29.4 µM
  TGI: > 100 µM
[23]
  GI50: 22.2 µM
  TGI: 64.5 µM
[24]
  GI50: 17.1 µM
  TGI: 35.7 µM
[25]
  GI50: 25.8 µM
  TGI: 75.9 µM
[26]
  GI50: 15.1 µM
  TGI: 39.1 µM
[27]
  GI50: > 100 µM
  TGI: > 100 µM
[28]
  GI50: 18.4 µM
  TGI: 38.3 µM
[29]
  GI50: 13.6 µM
  TGI: 85.3 µM
[30]
  GI50: 6.63 µM
  TGI: 35 µM
[31]
  GI50: 28.6 µM
  TGI: 69 µM
[32]
  GI50: 33.7 µM
  TGI: > 100 µM
[33]
  GI50: > 100 µM
  TGI: > 100 µM
[34]
  GI50: 33.3 µM
  TGI: > 100 µM
[35]
  GI50: 45 µM
  TGI: > 100 µM
[36]
  GI50: 26.1 µM
  TGI: 77.2 µM
[37]
  GI50: 29.5 µM
  TGI: > 100 µM
[38]
  GI50: 84.7 µM
  TGI: > 100 µM
[39]
  GI50: 25.7 µM
  TGI: 76.7 µM
[40]
  GI50: > 100 µM
  TGI: > 100 µM
[41]
  GI50: > 100 µM
  TGI: > 100 µM
[42]
  GI50: 25 µM
  TGI: 61.1 µM
[43]
  GI50: 29.6 µM
  TGI: > 100 µM
[44]
  GI50: 20 µM
  TGI: > 100 µM
[45]
  GI50: 33 µM
  TGI: 90.1 µM
[46]
  GI50: 18.3 µM
  TGI: 44.3 µM
[47]
  GI50: 32 µM
  TGI: > 100 µM
[48]
  GI50: 20.6 µM
  TGI: 61.3 µM
[49]
  GI50: 24.8 µM
  TGI: 82.1 µM
[50]
  GI50: 16.9 µM
  TGI: 58 µM
[51]
  GI50: 27.7 µM
  TGI: 62 µM
[52]
  GI50: 34.4 µM
  TGI: > 100 µM
[53]
  GI50: 13.2 µM
  TGI: 33.4 µM
[54]
  GI50: 44.1 µM
  TGI: > 100 µM
[55]
  GI50: 26.7 µM
  TGI: > 100 µM

## COc1cc2c(/C=C3\C(=O)N(C)c4ccc(O)cc43)c[nH]c2cc1C
[1]
  GI50: 3.83 µM
  TGI: 34 µM
[2]
  GI50: 3.38 µM
  TGI: 14.5 µM
[3]
  GI50: 3.7 µM
  TGI: 22.3 µM
[4]
  GI50: 0.373 µM
  TGI: 1.5 µM
[5]
  GI50: 8.77 µM
  TGI: 38.2 µM
[6]
  GI50: 14.3 µM
  TGI: 34.3 µM
[7]
  GI50: 4.75 µM
  TGI: 67.8 µM
[8]
  GI50: 22 µM
  TGI: 42.5 µM
[9]
  GI50: 4.33 µM
  TGI: > 100 µM
[10]
  GI50: 20.8 µM
  TGI: 39.6 µM
[11]
  GI50: 3.07 µM
  TGI: 12.6 µM
[12]
  GI50: 3.56 µM
  TGI: 16.1 µM
[13]
  GI50: 2.88 µM
  TGI: > 100 µM
[14]
  GI50: 14.6 µM
  TGI: 47.2 µM
[15]
  GI50: 4.58 µM
  TGI: 24.1 µM
[16]
  GI50: 1.86 µM
  TGI: 5.44 µM
[17]
  GI50: 3.54 µM
  TGI: 17.2 µM
[18]
  GI50: 5.98 µM
  TGI: 20.1 µM
[19]
  GI50: 3.35 µM
  TGI: 35.9 µM
[20]
  GI50: 3.05 µM
  TGI: 18.1 µM
[21]
  GI50: 6.16 µM
  TGI: 52.9 µM
[22]
  GI50: 4.05 µM
  TGI: 39.7 µM
[56]
  GI50: 2.36 µM
  TGI: > 100 µM
[23]
  GI50: 10.9 µM
  TGI: 44.5 µM
[24]
  GI50: 3.87 µM
  TGI: 13.2 µM
[25]
  GI50: 3.7 µM
  TGI: 16.8 µM
[26]
  GI50: 0.854 µM
  TGI: 3.52 µM
[28]
  GI50: 4.89 µM
  TGI: 45.2 µM
[29]
  GI50: 4.67 µM
  TGI: > 100 µM
[30]
  GI50: 3.3 µM
  TGI: 10.6 µM
[31]
  GI50: 2.12 µM
  TGI: 6.33 µM
[32]
  GI50: 6.04 µM
  TGI: 32.6 µM
[33]
  GI50: 2.28 µM
  TGI: 7.35 µM
[34]
  GI50: 2.64 µM
  TGI: 17.3 µM
[35]
  GI50: 3.86 µM
  TGI: 22.6 µM
[36]
  GI50: 3.79 µM
  TGI: 22.2 µM
[37]
  GI50: 3.5 µM
  TGI: 15.6 µM
[57]
  GI50: 5.3 µM
  TGI: > 100 µM
[38]
  GI50: 2.99 µM
  TGI: 28.1 µM
[39]
  GI50: 5.7 µM
  TGI: 37 µM
[40]
  GI50: 5.29 µM
  TGI: 46.4 µM
[41]
  GI50: 2.62 µM
  TGI: 7.79 µM
[42]
  GI50: 2.54 µM
  TGI: 7.01 µM
[43]
  GI50: 3.67 µM
  TGI: > 100 µM
[44]
  GI50: 4.17 µM
  TGI: 25.9 µM
[45]
  GI50: 2.44 µM
  TGI: 7.08 µM
[46]
  GI50: 1.56 µM
  TGI: 3.74 µM
[47]
  GI50: 2.9 µM
  TGI: 8.4 µM
[48]
  GI50: 1.47 µM
  TGI: 5.2 µM
[49]
  GI50: 9.73 µM
  TGI: 30.3 µM
[50]
  GI50: 3.95 µM
  TGI: 21 µM
[51]
  GI50: 31.1 µM
  TGI: 75.4 µM
[52]
  GI50: 3.35 µM
  TGI: 32.2 µM
[53]
  GI50: 3.16 µM
  TGI: 16 µM
[55]
  GI50: 3.42 µM
  TGI: 26.6 µM
